According to ChEMBL document CHEMBL5291721, “A preclinical secondary pharmacology resource illuminates target-adverse drug reaction associations of marketed drugs” (Nat Commun, 2023):

What was measured:
Histamine H3 receptor = Histamine H3 receptor (Homo sapiens, UniProt Q9Y5N1)
Adenosine receptor A3 = target: T1, Adenosine receptor A3 (Homo sapiens, UniProt P0DMS8)
T1 sequence (P0DMS8 whole entry): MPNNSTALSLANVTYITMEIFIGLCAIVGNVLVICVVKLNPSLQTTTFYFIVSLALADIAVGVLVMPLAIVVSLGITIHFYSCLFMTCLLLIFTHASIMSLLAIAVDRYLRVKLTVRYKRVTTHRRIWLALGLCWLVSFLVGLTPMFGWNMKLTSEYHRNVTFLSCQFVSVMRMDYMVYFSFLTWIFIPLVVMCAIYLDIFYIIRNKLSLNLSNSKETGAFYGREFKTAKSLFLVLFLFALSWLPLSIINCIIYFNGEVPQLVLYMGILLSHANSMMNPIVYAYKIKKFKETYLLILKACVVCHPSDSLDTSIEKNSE

[1] = target: T2, Prostaglandin G/H synthase 1 (Rattus norvegicus, UniProt Q63921); format: functional
T2 sequence (Q63921 whole entry): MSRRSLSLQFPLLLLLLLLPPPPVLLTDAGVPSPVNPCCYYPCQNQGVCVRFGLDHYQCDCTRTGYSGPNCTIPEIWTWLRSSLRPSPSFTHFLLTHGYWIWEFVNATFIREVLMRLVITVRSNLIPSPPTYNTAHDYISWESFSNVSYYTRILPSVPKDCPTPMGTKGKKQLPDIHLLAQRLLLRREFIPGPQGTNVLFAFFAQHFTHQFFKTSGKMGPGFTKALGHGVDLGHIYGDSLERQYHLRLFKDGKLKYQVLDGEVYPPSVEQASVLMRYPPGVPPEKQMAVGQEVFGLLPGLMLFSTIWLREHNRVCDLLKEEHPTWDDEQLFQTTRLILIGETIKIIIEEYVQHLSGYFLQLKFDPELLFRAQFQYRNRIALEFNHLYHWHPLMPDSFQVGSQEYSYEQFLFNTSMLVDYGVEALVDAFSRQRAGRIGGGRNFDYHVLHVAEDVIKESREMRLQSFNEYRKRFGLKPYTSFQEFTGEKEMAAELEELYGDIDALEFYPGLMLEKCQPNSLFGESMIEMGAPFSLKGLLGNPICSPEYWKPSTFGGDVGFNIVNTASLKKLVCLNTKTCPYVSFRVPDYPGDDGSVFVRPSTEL

[2] = target: T3, Cholecystokinin receptor type A (Homo sapiens, UniProt P32238)
T3 sequence (P32238 whole entry): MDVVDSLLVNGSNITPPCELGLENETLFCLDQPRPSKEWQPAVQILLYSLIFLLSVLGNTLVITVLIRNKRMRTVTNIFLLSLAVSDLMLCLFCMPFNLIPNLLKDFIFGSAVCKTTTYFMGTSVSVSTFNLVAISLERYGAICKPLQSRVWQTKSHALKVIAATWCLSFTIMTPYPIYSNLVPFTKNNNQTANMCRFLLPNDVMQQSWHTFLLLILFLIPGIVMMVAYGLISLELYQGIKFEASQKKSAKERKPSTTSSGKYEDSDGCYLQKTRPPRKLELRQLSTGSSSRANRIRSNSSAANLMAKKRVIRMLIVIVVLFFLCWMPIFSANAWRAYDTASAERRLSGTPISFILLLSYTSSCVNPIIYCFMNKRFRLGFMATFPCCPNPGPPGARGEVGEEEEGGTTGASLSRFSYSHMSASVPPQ

Melanocortin receptor 4 = Melanocortin receptor 4 (Homo sapiens, UniProt P32245)
[3] = target: Muscarinic acetylcholine receptor M3 (Homo sapiens, UniProt P20309)
Adenosine receptor A2a = Adenosine receptor A2a (Homo sapiens, UniProt P29274)
Progesterone receptor = target: T4, Progesterone receptor (Homo sapiens, UniProt P06401); format: functional
T4 sequence (P06401 whole entry): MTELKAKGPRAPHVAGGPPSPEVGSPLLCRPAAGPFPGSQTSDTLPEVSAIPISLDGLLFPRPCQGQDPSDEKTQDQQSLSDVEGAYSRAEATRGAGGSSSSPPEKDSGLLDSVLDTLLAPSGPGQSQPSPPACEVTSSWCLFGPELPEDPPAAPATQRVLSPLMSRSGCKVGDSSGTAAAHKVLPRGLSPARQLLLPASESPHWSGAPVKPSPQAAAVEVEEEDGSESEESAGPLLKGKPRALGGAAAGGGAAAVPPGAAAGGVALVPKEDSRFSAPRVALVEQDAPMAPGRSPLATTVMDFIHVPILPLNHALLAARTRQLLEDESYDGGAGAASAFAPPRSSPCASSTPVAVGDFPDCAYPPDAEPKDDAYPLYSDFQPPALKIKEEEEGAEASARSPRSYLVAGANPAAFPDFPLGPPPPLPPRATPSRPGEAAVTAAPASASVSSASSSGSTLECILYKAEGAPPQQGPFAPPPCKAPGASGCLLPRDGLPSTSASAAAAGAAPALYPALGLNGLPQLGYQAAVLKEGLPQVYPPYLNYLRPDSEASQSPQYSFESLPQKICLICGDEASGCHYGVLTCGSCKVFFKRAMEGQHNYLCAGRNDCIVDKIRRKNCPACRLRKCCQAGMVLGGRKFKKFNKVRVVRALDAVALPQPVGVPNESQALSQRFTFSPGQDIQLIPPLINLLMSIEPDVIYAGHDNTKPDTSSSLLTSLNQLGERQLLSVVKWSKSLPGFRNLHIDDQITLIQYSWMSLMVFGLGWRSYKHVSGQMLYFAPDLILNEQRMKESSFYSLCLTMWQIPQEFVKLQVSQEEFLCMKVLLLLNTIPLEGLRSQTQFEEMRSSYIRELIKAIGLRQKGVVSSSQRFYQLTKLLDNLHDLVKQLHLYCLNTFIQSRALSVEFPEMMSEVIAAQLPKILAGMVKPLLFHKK

[4] = target: 5-hydroxytryptamine receptor 2A (Homo sapiens, UniProt P28223); format: functional, cell-based
Vasopressin V2 receptor = Vasopressin V2 receptor (Homo sapiens, UniProt P30518)
D(1A) dopamine receptor = D(1A) dopamine receptor (Homo sapiens, UniProt P21728); format: functional, cell-based
Also: assay procedure not described here.

Sequence of D(1A) dopamine receptor (P21728 whole entry): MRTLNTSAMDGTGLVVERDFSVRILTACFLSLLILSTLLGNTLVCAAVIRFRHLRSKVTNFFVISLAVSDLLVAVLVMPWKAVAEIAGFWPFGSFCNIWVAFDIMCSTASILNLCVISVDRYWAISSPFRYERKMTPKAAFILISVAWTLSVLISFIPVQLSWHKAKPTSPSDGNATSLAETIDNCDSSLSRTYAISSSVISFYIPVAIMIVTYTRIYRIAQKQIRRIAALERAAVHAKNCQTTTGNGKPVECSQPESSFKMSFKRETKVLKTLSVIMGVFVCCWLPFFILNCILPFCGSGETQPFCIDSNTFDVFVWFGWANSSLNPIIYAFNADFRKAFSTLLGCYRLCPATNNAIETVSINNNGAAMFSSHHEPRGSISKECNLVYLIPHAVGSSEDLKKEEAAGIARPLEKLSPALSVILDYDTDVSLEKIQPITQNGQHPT
Sequence of 5-hydroxytryptamine receptor 2A (P28223 whole entry): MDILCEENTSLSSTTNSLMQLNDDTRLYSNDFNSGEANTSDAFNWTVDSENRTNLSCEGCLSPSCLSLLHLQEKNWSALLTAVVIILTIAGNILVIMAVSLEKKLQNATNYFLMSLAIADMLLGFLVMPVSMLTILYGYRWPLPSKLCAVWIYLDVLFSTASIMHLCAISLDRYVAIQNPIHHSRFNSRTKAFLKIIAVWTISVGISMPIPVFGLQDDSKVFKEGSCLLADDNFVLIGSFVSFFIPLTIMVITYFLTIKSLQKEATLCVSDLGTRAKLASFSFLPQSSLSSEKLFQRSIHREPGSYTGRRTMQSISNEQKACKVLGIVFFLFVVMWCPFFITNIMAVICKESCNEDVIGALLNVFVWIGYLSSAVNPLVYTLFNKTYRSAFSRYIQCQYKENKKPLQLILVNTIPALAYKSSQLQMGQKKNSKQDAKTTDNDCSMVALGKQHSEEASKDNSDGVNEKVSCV
Sequence of Melanocortin receptor 4 (P32245 whole entry): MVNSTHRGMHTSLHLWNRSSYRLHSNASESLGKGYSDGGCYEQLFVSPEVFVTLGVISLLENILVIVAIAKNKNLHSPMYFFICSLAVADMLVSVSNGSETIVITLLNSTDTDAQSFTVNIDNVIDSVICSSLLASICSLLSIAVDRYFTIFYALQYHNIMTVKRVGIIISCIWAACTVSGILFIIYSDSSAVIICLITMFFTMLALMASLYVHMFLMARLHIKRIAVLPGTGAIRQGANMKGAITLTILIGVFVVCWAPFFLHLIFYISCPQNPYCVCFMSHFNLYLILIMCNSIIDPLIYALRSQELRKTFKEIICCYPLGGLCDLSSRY
Sequence of Muscarinic acetylcholine receptor M3 (P20309 whole entry): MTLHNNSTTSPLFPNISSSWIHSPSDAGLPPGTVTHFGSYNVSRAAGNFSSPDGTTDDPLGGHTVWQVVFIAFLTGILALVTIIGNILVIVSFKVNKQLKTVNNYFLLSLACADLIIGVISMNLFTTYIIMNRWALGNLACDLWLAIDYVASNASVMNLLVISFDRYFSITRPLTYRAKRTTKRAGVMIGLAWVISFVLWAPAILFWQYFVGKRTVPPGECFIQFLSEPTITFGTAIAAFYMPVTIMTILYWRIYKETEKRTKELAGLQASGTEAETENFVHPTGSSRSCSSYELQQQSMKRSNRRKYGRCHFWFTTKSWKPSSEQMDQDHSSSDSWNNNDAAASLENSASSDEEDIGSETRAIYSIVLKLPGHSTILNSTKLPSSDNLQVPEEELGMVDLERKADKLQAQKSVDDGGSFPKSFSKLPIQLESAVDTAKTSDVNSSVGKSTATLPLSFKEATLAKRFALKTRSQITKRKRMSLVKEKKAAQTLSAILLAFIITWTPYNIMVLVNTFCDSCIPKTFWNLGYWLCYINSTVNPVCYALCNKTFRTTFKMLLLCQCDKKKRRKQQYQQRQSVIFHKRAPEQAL
Sequence of Histamine H3 receptor (Q9Y5N1 whole entry): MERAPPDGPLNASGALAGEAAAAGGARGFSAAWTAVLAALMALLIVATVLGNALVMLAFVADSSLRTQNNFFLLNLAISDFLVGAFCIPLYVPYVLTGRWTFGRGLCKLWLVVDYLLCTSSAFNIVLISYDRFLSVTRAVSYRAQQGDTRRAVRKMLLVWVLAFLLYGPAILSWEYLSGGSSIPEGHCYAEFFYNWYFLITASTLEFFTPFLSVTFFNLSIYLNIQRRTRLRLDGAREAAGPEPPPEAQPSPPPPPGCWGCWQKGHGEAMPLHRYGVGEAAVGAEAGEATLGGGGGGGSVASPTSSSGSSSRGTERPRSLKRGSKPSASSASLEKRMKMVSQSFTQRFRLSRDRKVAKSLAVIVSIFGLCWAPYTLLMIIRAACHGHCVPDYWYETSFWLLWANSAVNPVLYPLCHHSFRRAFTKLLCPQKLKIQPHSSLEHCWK
Sequence of Adenosine receptor A2a (P29274 whole entry): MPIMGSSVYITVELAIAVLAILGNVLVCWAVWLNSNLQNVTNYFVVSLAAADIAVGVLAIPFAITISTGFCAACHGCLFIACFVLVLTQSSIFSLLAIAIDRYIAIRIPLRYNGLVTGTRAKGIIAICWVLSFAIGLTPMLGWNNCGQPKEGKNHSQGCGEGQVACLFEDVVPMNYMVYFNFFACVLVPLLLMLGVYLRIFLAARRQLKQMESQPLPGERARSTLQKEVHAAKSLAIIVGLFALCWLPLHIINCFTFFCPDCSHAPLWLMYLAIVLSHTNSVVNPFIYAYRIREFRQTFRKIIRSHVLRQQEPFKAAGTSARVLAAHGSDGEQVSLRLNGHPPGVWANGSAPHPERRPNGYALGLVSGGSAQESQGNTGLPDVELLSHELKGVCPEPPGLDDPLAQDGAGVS
Sequence of Vasopressin V2 receptor (P30518 whole entry): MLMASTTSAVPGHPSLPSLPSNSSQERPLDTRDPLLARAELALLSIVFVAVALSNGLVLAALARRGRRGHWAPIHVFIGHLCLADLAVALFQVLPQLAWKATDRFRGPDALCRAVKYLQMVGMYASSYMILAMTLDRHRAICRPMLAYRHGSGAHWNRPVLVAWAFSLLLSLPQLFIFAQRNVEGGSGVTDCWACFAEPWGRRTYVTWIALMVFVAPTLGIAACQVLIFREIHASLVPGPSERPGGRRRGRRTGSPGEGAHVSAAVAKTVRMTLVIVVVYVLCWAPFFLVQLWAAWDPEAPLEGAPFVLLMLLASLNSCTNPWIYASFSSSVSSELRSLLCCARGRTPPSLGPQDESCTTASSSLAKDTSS

| Compound | AC50 (Histamine H3 receptor) [µM] | AC50 (Adenosine receptor A3) [µM] | AC50 [1] [µM] | AC50 [2] [µM] | AC50 (Melanocortin receptor 4) [µM] | AC50 [3] [µM] | AC50 (Adenosine receptor A2a) [µM] | AC50 (Progesterone receptor) [µM] | AC50 [4] [µM] | AC50 (Vasopressin V2 receptor) [µM] | AC50 (D(1A) dopamine receptor) [µM] |
| --- | --- | --- | --- | --- | --- | --- | --- | --- | --- | --- | --- |
| CCN(CC)CCCN(c1ccccc1)C1Cc2ccccc2C1 [APRINDINE] | 18 | > 30 | > 30 | > 30 | > 10 | > 30 | > 30 | > 30 | > 30 | > 30 | > 30 |
| CCC1(CC)C(=O)NC(=O)N(C)C1=O [METHARBITAL] | > 10 | > 10 | > 10 | > 10 | > 10 | > 30 | > 10 | > 10 | > 10 | > 10 | > 10 |
| COC(=O)[C@H]1[C@H]2C[C@@H]3c4[nH]c5ccccc5c4CCN3C[C@H]2C[C@@H](OC(=O)c2cc(OC)c(OC)c(OC)c2)[C@@H]1OC [DESERPIDINE] |  | 15.8 | 34.3 | 34.4 | 8.6 | > 30 | > 30 | > 30 | > 10 | > 30 | > 10 |
| Oc1cc(O)c2c(c1)O[C@H](c1ccc(O)c(O)c1)[C@@H](O)C2 [CIANIDANOL] | > 10 | 22.2 |  | > 30 | > 30 | > 30 | > 30 |  | > 30 | > 30 | > 10 |
| OCC(O)COc1ccc(Cl)cc1 (stereo unspecified) | > 10 | > 10 | > 10 | > 10 | > 10 | > 30 | > 10 | > 10 | > 10 | > 10 | > 10 |
| CC1NCCOC1c1ccccc1 (stereo unspecified) [PHENMETRAZINE] | > 10 | > 30 | > 30 | > 30 | > 30 | > 30 | > 30 |  | > 30 | > 30 | > 10 |
| Cc1ccc(-c2ncc(Cl)cc2-c2ccc(S(C)(=O)=O)cc2)cn1 [ETORICOXIB] | > 10 | > 10 | > 30 | > 10 | > 10 | > 10 | > 10 |  | > 30 | > 30 | > 10 |
| CC(C)(N)Cc1ccccc1 [PHENTERMINE] | > 10 | > 30 | > 30 | > 30 | > 30 | > 30 | > 30 |  | > 30 | > 30 | > 10 |
| COc1ccc2c3c1O[C@H]1C(=O)CC[C@H]4[C@@H](C2)N(C)CC[C@]314 [HYDROCODONE] | > 10 | > 30 | > 30 | > 30 | > 30 | > 10 | > 30 |  | > 30 | > 30 | > 10 |
| C[C@@H](Cc1ccccc1)N(C)Cc1ccccc1 [BENZPHETAMINE] | > 10 | > 10 | > 10 | > 10 | > 10 | > 30 | > 10 | > 10 | > 10 | > 10 | > 10 |
| OCC(CO)N[C@H]1C[C@](O)(CO)[C@@H](O)[C@H](O)[C@H]1O [VOGLIBOSE] | > 30 | > 30 | > 30 | > 30 | > 30 | > 30 | > 30 | > 30 | > 30 | > 30 | > 30 |
| CCOC(=O)O[C@]1(C(=O)COC(=O)CC)CC[C@H]2[C@@H]3CCC4=CC(=O)C=C[C@]4(C)[C@H]3[C@@H](O)C[C@@]21C [PREDNICARBATE] |  | > 10 | > 10 | > 10 | > 10 | > 30 | > 10 |  | > 10 | > 10 | > 10 |
| CN(C)CCOC(=O)C(c1ccccc1)C1(O)CCCC1 (stereo unspecified) [CYCLOPENTOLATE] |  | > 10 | > 10 | > 10 | > 10 | 0.04 | > 10 | > 10 | > 10 | > 10 | > 10 |
| O=C(C[S+]([O-])Cc1ccco1)NC/C=C\COc1cc(CN2CCCCC2)ccn1 (stereo unspecified) [LAFUTIDINE] | > 10 | > 10 | > 10 | > 10 | > 10 | > 30 | > 10 | > 10 | > 30 | > 10 | > 10 |
| Nc1ccc(S(=O)(=O)Nc2ncccn2)cc1 [SULFADIAZINE] | > 10 | > 10 | > 10 | > 10 | > 10 |  | > 10 | > 10 |  | > 10 | > 10 |
| CCC(=O)[C@@]1(C)[C@H](C)C[C@H]2[C@@H]3CCC4=CC(=O)C=C[C@]4(C)[C@H]3[C@@H](O)C[C@@]21C [RIMEXOLONE] |  | > 10 | > 10 | > 10 | > 10 | > 30 | > 10 |  | > 10 | > 10 | > 10 |
| CC(=O)OCC1=C(C(=O)O)N2C(=O)[C@@H](NC(=O)CSc3ccncc3)[C@H]2SC1 [CEPHAPIRIN] |  | > 10 | > 10 | > 10 | > 10 | > 30 | > 10 | > 30 | > 10 | > 10 | > 10 |
| CC(C)CN(C[C@@H](O)[C@H](Cc1ccccc1)NC(=O)O[C@H]1CCOC1)S(=O)(=O)c1ccc(N)cc1 | > 10 | > 30 | > 10 | > 30 | > 30 |  | > 30 | > 10 |  | > 30 | > 10 |
